Like-named read-outs stand apart in the source and are kept apart here.
Key:
ARK5 = biological target: T1, ARK5 (Homo sapiens, UniProt O60285); test: KINOMEScan; format: binding; conditions: ARK5, 1 µM; read-out: Percent Control
T1 construct: purchased Eurofins DiscoverX (KINOMEscan)
Text: (§3) Percent control was mapped onto the kinome tree using TREEspot.

BIKE = biological target: T2, BIKE (Homo sapiens, UniProt Q9NSY1); test: KINOMEScan; format: binding; conditions: read-out: Percent Control
T2 construct: purchased Eurofins DiscoverX (KINOMEscan)
Text: as §3

YSK1 = biological target: T3, YSK1 (Homo sapiens, UniProt O00506); test: KINOMEScan; format: binding; conditions: YSK1, 1 µM; read-out: Percent Control
T3 construct: purchased Eurofins DiscoverX (KINOMEScan service)

[1] = Oral CNS pharmacokinetic assessment; format: in vivo, Sprague-Dawley rats; conditions: male, Sprague-Dawley, brain, Rat 20 mg/kg (PO)
Procedure: (§1) Animal experiments were performed at Pharmaron, Inc. and animal use was approved by Pharmaron’s Institutional Animal Care and Use Committee (IACUC) in Pharmaron (Pharmaron IACUC, Protocol #PK-M-07182022, #PK-R-06012022, and #ON-CELL-XEN-06012022) following the guidance of AAALAC. Six- to eight-week-old male Sprague-Dawley rats (approximately 200–300 g) obtained from Si Bei Fu Laboratory Animal Technology Co., six- to eight-week-old male CD1 mice (approximately 20–30 g) obtained from Si Bei Fu Laboratory Animal Technology Co., and six- to eight-week-old female BALB/c nude mice (approximately 20–30 g) obtained from Si Bei Fu Laboratory Animal Technology Co., were used in the pharmacokinetic studies. Six- to eight-week-old female BALB/c nude mice (approximately 18–22 g) obtained from Beijing Anikeeper Biotech Co., Ltd. were used in the intracranial PDX study. […]
(§2) Oral CNS pharmacokinetic assessment of 9 was done by oral gavage (formulation: 1% methylcellulose) followed by blood and brain sampling at 7 time points (0.25, 0.5, 1, 2, 4, 8, 24 h post dose) with n = 3 animals per time point (n = 21 total). […] Concentrations of 9 in the plasma and brain samples were determined using LC-MS/MS and WinNonlin 8.3 (Phoenix) was used for pharmacokinetic calculations. […]

ALK = biological target: T4, ALK (Homo sapiens, UniProt Q9UM73); test: KINOMEScan; format: binding; conditions: read-out: Percent Control
T4 construct: purchased Eurofins DiscoverX (KINOMEscan)
Text: as §3

BLK = biological target: T5, BLK (Homo sapiens, UniProt P51451); test: KINOMEScan; format: binding; conditions: read-out: Percent Control
T5 construct: purchased Eurofins DiscoverX (KINOMEscan)
Text: as §3

WEE1 = biological target: T6, WEE1 (Homo sapiens, UniProt P30291); test: KINOMEScan; format: binding; conditions: WEE1, 1 µM; read-out: Percent Control
T6 construct: purchased Eurofins DiscoverX
Text: as §3

BMPR1A = biological target: T7, BMPR1A (Homo sapiens, UniProt P36894); test: KINOMEScan; format: binding; conditions: read-out: Percent Control
T7 construct: purchased Eurofins DiscoverX (KINOMEscan)
Text: as §3

YANK2 = biological target: T8, YANK2 (Homo sapiens, UniProt Q9NY57); test: KINOMEScan; format: binding; conditions: YANK2, 1 µM; read-out: Percent Control
T8 construct: purchased Eurofins DiscoverX (KINOMEScan service)
Text: as §3

YSK4 = biological target: T9, YSK4 (Homo sapiens, UniProt Q56UN5); test: KINOMEScan; format: binding; conditions: YSK4, 1 µM; read-out: Percent Control
T9 construct: purchased Eurofins DiscoverX (KINOMEScan service)

CYP2C19 = biological target: T10, CYP2C19 (Homo sapiens, UniProt P33261); test: CYP450 inhibition in human liver microsomes; format: in vitro ADME
T10 construct: tissue BD Gentest; host or cells: pooled human liver microsomes
Procedure: The activities tested were CYP1A2-mediated phenacetin O-demethylation, CYP2C19-mediated (S)-mephenyotin 4′-hydroxylation, CYP2C9-mediated diclofenac 4′-hydroxylation, CYP2D6-mediated dextromethorphan O-demethylation, and CYP3A4-mediated midazolam 1′-hydroxylation. […] The reactions were initiated by adding NADPH (1 mM final concentration) after a 5 min preincubation, and the assay was run in duplicate (n = 2). Samples were analyzed by ultra-performance liquid chromatography tandem mass spectrometry (UPLC-MS/MS).

[2] = biological target: T11, ABL1(M351T)-phosphorylated (Homo sapiens, UniProt P00519, M351T); test: KINOMEScan; format: binding; conditions: read-out: Percent Control
T11 construct: purchased Eurofins DiscoverX
Text: as §3

[3] = Oral CNS pharmacokinetic assessment; format: in vivo, CD1 mice; conditions: male, CD1, brain/plasma, Mouse 40 mg/kg (PO)
Procedure: as §1, §2

YANK1 = biological target: T12, YANK1 (Homo sapiens, UniProt Q8WU08); test: KINOMEScan; format: binding; conditions: YANK1, 1 µM; read-out: Percent Control
T12 construct: purchased Eurofins DiscoverX (KINOMEScan service)
Text: as §3

BRAF = biological target: T13, BRAF (Homo sapiens, UniProt P15056); test: KINOMEScan; format: binding; conditions: read-out: Percent Control
T13 construct: purchased Eurofins DiscoverX (KINOMEscan)
Text: as §3

BMPR2 = biological target: T14, BMPR2 (Homo sapiens, UniProt Q13873); test: KINOMEScan; format: binding; conditions: BMPR2, 1 µM; read-out: Percent Control
T14 construct: purchased Eurofins DiscoverX (KINOMEscan)
Text: as §3

ANKK1 = biological target: T15, ANKK1 (Homo sapiens, UniProt Q8NFD2); test: KINOMEScan; format: binding; conditions: ANKK1, 1 µM; read-out: Percent Control
T15 construct: purchased Eurofins DiscoverX (KINOMEscan)
Text: as §3

ASK2 = biological target: T16, ASK2 (Homo sapiens, UniProt O95382); test: KINOMEScan; format: binding; conditions: ASK2, 1 µM; read-out: Percent Control
T16 construct: purchased Eurofins DiscoverX (KINOMEscan)

ALK(C1156Y) = biological target: T17, ALK(C1156Y) (Homo sapiens, UniProt Q9UM73, C1156Y); test: KINOMEScan; format: binding; conditions: read-out: Percent Control
T17 construct: purchased Eurofins DiscoverX (KINOMEscan)
Text: as §3

ZAK = biological target: T18, ZAK (Homo sapiens, UniProt Q9NYL2); test: KINOMEScan; format: binding; conditions: read-out: Percent Control
T18 construct: purchased Eurofins DiscoverX (KINOMEScan service)

AKT2 = biological target: T19, AKT2 (Homo sapiens, UniProt P31751); test: KINOMEScan; format: binding; conditions: AKT2, 1 µM; read-out: Percent Control
T19 construct: purchased Eurofins DiscoverX (KINOMEscan)
Text: as §3

AURKB = biological target: T20, AURKB (Homo sapiens, UniProt Q96GD4); test: KINOMEScan; format: binding; conditions: read-out: Percent Control
T20 construct: purchased Eurofins DiscoverX (KINOMEscan)

AKT3 = biological target: T21, AKT3 (Homo sapiens, UniProt Q9Y243); test: KINOMEScan; format: binding; conditions: AKT3, 1 µM; read-out: Percent Control
T21 construct: purchased Eurofins DiscoverX (KINOMEscan)
Text: as §3

T20 sequence (Q96GD4 whole entry): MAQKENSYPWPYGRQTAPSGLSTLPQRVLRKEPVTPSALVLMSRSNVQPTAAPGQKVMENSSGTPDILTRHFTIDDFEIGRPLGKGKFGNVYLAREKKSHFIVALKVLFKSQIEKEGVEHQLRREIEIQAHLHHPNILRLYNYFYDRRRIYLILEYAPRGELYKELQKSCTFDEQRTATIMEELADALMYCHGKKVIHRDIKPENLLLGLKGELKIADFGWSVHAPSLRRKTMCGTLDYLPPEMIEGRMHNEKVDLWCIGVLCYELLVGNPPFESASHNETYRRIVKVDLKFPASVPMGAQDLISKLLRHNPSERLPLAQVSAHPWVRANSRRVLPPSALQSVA
T8 sequence (Q9NY57 whole entry): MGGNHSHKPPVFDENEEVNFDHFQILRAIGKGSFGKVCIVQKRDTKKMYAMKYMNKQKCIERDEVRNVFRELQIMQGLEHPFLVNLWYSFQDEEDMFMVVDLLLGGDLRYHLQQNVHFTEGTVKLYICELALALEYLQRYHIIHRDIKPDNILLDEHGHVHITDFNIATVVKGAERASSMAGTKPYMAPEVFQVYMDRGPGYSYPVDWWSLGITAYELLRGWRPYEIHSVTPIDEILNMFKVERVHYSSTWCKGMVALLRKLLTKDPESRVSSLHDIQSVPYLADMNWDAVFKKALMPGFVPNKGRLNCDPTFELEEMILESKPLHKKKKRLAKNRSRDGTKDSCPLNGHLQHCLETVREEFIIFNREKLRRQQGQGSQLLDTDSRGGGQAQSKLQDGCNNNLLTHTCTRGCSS
T2 sequence (Q9NSY1 whole entry): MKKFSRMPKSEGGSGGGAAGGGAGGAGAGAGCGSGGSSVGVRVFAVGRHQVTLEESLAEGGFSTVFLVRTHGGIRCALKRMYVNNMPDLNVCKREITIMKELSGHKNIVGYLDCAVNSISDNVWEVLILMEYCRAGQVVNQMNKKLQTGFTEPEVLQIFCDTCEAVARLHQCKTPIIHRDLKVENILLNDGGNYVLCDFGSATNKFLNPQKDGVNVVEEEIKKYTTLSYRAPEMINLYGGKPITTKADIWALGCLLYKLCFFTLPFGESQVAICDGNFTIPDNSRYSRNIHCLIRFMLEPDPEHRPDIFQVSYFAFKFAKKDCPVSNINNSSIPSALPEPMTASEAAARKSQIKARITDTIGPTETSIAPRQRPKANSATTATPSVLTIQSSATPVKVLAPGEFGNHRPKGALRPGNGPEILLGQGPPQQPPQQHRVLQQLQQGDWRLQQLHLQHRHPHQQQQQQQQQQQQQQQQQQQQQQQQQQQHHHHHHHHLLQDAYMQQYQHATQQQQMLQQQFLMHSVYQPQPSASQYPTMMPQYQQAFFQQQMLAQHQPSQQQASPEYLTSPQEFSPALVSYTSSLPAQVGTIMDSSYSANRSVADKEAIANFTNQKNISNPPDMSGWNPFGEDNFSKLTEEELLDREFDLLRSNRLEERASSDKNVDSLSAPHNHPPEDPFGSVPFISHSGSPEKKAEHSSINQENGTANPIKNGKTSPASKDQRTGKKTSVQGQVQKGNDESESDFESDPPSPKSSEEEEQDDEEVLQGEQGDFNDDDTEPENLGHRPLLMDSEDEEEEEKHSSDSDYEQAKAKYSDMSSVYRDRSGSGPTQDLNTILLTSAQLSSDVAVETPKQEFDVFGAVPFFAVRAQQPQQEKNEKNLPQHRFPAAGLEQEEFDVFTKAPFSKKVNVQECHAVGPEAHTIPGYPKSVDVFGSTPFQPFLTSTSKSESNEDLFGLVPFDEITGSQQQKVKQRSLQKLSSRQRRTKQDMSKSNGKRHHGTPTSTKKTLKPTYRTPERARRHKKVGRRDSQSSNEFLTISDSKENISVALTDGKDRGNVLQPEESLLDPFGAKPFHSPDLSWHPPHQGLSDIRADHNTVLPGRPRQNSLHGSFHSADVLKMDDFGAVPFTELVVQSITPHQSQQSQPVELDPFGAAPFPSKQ
T15 sequence (Q8NFD2 whole entry): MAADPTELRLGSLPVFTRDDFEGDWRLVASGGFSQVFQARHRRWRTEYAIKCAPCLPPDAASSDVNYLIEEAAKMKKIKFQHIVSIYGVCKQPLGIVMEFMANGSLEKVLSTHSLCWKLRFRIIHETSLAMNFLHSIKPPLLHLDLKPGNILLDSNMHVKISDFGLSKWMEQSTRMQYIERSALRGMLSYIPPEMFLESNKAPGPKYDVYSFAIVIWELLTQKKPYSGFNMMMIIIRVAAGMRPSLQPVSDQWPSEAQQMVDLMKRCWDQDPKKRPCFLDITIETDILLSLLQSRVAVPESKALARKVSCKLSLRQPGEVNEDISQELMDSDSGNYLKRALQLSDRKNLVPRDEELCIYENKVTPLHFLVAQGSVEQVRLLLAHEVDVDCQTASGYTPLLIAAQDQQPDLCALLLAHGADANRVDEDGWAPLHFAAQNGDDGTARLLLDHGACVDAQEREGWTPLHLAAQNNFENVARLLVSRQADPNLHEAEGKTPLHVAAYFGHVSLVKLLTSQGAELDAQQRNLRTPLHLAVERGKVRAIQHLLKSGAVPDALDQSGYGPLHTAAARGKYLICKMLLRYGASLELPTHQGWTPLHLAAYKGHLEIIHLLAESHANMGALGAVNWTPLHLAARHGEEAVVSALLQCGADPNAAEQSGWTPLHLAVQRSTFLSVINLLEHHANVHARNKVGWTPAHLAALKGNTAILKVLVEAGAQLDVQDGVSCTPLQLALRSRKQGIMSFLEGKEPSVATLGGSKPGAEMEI
T9 sequence (Q56UN5 whole entry): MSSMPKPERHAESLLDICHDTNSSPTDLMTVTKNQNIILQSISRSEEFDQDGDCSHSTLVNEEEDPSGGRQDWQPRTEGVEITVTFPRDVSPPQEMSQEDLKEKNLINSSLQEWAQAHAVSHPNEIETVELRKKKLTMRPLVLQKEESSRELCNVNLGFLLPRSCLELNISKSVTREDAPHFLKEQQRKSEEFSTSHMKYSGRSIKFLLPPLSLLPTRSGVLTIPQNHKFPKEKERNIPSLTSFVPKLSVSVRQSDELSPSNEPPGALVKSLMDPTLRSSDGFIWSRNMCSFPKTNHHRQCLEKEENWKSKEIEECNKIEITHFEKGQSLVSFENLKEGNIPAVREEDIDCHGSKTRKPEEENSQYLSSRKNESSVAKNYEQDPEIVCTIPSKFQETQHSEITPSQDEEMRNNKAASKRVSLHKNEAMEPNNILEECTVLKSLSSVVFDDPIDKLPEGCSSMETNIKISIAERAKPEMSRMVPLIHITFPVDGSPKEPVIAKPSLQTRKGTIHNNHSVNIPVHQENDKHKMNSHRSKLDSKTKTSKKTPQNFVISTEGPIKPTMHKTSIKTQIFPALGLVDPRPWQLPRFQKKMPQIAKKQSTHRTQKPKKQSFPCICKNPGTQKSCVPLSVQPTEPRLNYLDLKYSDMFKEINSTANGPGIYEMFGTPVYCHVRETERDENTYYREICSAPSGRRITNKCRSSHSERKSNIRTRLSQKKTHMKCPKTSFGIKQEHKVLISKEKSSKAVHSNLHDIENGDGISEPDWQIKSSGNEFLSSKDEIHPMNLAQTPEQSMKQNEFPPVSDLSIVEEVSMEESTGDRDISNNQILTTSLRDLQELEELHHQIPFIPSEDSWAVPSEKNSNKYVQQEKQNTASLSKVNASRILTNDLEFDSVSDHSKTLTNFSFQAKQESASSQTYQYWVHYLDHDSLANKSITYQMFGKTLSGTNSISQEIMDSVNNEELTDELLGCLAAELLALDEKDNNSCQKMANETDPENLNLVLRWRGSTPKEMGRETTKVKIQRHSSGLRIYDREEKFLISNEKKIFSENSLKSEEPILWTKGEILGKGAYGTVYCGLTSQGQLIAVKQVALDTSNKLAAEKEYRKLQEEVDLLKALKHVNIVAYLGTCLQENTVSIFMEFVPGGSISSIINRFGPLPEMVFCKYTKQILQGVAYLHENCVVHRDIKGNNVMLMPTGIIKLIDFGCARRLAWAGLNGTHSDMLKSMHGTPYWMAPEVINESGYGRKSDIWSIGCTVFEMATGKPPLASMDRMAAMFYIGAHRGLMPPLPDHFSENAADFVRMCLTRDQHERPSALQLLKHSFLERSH
T13 sequence (P15056 whole entry): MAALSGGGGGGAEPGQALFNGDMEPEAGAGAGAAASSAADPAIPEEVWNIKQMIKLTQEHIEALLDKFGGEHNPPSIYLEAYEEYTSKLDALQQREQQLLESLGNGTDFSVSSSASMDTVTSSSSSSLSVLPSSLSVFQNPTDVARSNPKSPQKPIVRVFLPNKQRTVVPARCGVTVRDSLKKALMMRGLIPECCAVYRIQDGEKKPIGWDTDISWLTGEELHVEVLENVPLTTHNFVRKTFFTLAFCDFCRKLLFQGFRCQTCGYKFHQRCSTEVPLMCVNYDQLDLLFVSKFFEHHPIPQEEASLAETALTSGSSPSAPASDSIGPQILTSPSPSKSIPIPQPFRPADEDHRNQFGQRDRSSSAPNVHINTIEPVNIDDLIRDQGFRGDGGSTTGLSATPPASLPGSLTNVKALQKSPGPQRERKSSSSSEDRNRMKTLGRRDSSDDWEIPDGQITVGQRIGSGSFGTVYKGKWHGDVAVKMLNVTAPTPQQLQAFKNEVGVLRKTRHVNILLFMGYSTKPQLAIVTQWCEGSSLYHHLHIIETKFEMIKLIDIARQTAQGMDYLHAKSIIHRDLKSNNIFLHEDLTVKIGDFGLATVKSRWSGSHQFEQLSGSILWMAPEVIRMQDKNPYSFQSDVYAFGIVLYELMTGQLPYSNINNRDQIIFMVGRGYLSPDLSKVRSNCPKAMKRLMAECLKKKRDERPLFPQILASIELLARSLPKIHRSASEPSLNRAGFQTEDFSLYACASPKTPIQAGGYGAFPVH

Structure (SMILES): COc1cc2ncnc(Nc3cccc(Cl)c3F)c2cc1OCCON1CCN(C)CC1 [Compound 9, N-(3-Chloro-2-fluorophenyl)-7-methoxy-6-(2-((4-methylpiperazin-1-yl)oxy)ethoxy)quinazolin-4-amine]
- remaining binding at 1 µM (ARK5): 100%
- remaining binding at 1 µM (BIKE): 99%
- remaining binding at 1 µM (YSK1): 94%
- Kp at 24 h ([1]; read-out: Kp brain (AUCinf)): 0.95
- Kp uu at 24 h ([1]; read-out: Kp,uu brain (AUCinf)): 0.33
- remaining binding at 1 µM (ALK): 89%
- remaining binding at 1 µM (BLK): 16%
- remaining binding at 1 µM (WEE1): 100%
- remaining binding at 1 µM (BMPR1A): 90%
- remaining binding at 1 µM (YANK2): 93%
- remaining binding at 1 µM (YSK4): 46%
- IC50 (CYP2C19): > 30 µM
- remaining binding at 1 µM [2]: 12%
- Kp at 24 h ([3]; read-out: Kp brain (AUCinf)): 0.77
- Kp uu at 24 h ([3]; read-out: Kp,uu brain (AUCinf)): 0.45
- remaining binding at 1 µM (YANK1): 94%
- remaining binding at 1 µM (BRAF): 89%
- remaining binding at 1 µM (BMPR2): 99%
- remaining binding at 1 µM (ANKK1): 97%
- remaining binding at 1 µM (ASK2): 85%
- remaining binding at 1 µM (ALK(C1156Y)): 100%
- remaining binding at 1 µM (ZAK): 89%
- remaining binding at 1 µM (AKT2): 91%
- remaining binding at 1 µM (AURKB): 84%
- remaining binding at 1 µM (AKT3): 68%

— PMC10683025, “Discovery of a Hydroxylamine-Based Brain-Penetrant EGFR Inhibitor for Metastatic Non-Small-Cell Lung Cancer” (Journal of Medicinal Chemistry, 2023)
